What is called AC50 is the concentration giving half of the maximal activity seen. For orientation: EC50 means the concentration that produces a half-maximal response.

The source made the active and inactive calls.

For experiment [1], the target named is Beta-lactamase (Salmonella choleraesuis (strain SC-B67), UniProt Q5J463). Description: Epi-absorbance-based counterscreen for selective VIM-2 inhibitors: dose response biochemical high throughput screening assay to identify inhibitors of TEM-1 serine-beta-lactamase. In general terms: The purpose of a counterscreen is to sort out artefacts and off-target activity.

For the next experiment, the target named is Major prion protein (Homo sapiens, UniProt P04156). The format is functional, cell-based.
Experiment [2] concerns the target T1, Beta-lactamase (Pseudomonas aeruginosa, UniProt Q79MP6). Nature of the experiment: inhibition of IMP-1 beta-lactamase activity – biochemical, epi-absorbance, selectivity assay for VIM-2 inhibitor project, dose response (AID 1920).
Experiment [3] concerns the target T1, Beta-lactamase. Description: […] counterscreen for selective VIM-2 inhibitors: dose response biochemical high throughput screening assay to identify inhibitors of IMP-1 metallo-beta-lactamase.
Experiment [4] is described as follows: cells.
The target of experiment [5] is Long-chain-fatty-acid--AMP ligase FadD28 (Mycobacterium tuberculosis, UniProt P9WQ59). Description: Fluorescence polarization aasay to screen for inhibitors that compete for the binding of FadD28 to a bisubstrate Measured in Biochemical System Using Plate Reader - 2147-01_Inhibitor_Dose_CherryPick_Activity. Format: functional, Mycobacterium tuberculosis H37Rv. (In general: In fluorescence polarisation assays a small probe gives low polarisation when free and higher when bound to something large.)

Experiment [6] can be described thus: Counterscreen for inhibitors of Trypanosoma brucei methionyl tRNA synthetase (MetRS): Luminescence-based cell-based high throughput dose response assay to identify compounds that are cytotoxic to Jurkat human T lymphocyte cells. Format: functional.
Experiment [7] addresses T2, Methionyl-tRNA synthetase, putative (Trypanosoma brucei brucei, UniProt Q38C91).
T2 sequence (Q38C91 whole entry): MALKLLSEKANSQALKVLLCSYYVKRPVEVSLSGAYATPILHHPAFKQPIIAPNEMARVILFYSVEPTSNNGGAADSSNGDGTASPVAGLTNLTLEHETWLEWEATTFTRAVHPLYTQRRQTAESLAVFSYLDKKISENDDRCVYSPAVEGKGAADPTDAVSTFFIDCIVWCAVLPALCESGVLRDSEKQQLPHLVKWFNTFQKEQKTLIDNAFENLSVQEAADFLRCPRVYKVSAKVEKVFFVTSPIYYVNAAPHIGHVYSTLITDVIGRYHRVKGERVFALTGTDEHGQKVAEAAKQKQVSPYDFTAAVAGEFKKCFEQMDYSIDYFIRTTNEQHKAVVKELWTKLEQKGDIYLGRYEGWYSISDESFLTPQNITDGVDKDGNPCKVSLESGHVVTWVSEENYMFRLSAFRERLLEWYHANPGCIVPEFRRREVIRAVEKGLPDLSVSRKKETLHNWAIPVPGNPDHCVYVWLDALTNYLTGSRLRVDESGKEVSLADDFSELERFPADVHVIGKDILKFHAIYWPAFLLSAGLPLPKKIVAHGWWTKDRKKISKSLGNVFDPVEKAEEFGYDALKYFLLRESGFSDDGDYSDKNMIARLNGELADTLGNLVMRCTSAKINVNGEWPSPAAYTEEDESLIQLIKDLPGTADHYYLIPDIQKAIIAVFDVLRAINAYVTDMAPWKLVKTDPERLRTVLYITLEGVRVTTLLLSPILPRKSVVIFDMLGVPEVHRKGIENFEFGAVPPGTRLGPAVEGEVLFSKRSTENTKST
The format is functional, Trypanosoma brucei brucei strain 927/4 GUTat10.1.

Experiment [8] concerns the target T2, Methionyl-tRNA synthetase, putative. The format is functional, Trypanosoma brucei brucei strain 927/4 GUTat10.1. This is another data set of the same source.
In another experiment the target is Galanin receptor type 3 (Homo sapiens, UniProt O60755). Nature of the experiment: Fluorescence-based cell-based primary high throughput dose response assay to identify antagonists of the Galanin Receptor 3 (GalR3). The format is functional.
The nature of experiment [9]: cells. Format: functional, cell-based. To be noted: HEK-CNG.
For the next experiment, the system named is H9c2. Description: cells. The format is functional, cell-based. Conditions: Rattus norvegicus, H9c2, Myocardium.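 Further: confirmatory concentration-response retest of ultra-high-throughput screening hits for modulation of myocardial damage; cell death induced by hydrogen peroxide oxidative stress; compound pretreatment for 60 min then peroxide exposure for 2 h; potency is for protecting the cells against peroxide damage rather than for killing them.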
In experiment [10] the target is Dual specificity protein phosphatase 3 (Homo sapiens, UniProt P51452). Nature of the experiment: VHR phosphatase inhibition, dose response, selectivity assay for STEP inhibitor project, biochemical (AID 602374). The format is functional. Conditions: read-out: IC50_Mean.
The target in experiment [11] is T3, Tyrosine-protein phosphatase non-receptor type 5 (Homo sapiens, UniProt P54829).
T3 sequence (P54829 whole entry): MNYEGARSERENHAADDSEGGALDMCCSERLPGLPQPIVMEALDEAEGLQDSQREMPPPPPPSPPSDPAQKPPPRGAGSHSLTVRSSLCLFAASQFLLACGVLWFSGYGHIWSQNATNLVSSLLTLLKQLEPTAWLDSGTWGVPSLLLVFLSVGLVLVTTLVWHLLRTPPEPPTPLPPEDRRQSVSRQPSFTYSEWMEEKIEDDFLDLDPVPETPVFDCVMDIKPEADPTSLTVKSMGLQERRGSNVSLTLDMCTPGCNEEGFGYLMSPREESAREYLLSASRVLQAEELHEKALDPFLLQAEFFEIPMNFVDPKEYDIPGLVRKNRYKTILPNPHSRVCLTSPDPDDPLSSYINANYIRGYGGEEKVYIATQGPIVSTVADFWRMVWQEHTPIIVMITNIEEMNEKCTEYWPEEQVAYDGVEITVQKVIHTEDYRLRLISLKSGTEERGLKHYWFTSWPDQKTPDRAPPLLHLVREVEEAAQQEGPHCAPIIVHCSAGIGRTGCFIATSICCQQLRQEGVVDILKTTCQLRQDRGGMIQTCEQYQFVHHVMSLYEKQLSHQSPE
Nature of the experiment: PTPN5 enzyme inhibition – biochemical, fluorescence intensity, uHTS hits, confirmation (AID 602372). The format is functional. To be noted: read-out: IC50_Mean.

Experiment [12] addresses T4, Tyrosine-protein phosphatase non-receptor type 22 (Homo sapiens, UniProt Q9Y2R2).
T4 sequence (Q9Y2R2 whole entry): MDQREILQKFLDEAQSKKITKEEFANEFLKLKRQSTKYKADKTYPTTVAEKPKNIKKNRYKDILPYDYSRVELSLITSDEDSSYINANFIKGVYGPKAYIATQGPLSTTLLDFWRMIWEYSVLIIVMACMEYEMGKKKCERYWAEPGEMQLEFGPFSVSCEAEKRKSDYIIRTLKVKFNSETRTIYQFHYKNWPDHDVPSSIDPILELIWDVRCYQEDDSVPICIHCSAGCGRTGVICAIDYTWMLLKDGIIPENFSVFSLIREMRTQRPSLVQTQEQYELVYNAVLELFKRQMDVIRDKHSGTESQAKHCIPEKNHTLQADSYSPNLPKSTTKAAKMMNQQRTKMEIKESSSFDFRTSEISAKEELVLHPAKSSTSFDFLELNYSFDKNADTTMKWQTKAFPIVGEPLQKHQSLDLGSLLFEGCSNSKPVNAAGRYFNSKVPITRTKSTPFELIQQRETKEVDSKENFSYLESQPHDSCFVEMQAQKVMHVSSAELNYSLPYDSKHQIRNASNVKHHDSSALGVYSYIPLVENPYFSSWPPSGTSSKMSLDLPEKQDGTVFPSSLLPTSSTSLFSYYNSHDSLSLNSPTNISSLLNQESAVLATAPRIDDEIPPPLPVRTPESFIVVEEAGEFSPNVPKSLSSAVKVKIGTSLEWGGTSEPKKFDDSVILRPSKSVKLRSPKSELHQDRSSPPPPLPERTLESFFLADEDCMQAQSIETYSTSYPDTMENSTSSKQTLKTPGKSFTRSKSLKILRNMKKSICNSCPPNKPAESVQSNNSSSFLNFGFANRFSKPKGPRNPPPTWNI
Description: lymphoid phosphatase LYP inhibitors – biochemical, selectivity assay for STEP inhibitor project, dose response (AID 624241). Format: functional.

Experiment [13] addresses T5, Tyrosine-protein phosphatase non-receptor type 11 (Homo sapiens, UniProt Q06124).
T5 sequence (Q06124 whole entry): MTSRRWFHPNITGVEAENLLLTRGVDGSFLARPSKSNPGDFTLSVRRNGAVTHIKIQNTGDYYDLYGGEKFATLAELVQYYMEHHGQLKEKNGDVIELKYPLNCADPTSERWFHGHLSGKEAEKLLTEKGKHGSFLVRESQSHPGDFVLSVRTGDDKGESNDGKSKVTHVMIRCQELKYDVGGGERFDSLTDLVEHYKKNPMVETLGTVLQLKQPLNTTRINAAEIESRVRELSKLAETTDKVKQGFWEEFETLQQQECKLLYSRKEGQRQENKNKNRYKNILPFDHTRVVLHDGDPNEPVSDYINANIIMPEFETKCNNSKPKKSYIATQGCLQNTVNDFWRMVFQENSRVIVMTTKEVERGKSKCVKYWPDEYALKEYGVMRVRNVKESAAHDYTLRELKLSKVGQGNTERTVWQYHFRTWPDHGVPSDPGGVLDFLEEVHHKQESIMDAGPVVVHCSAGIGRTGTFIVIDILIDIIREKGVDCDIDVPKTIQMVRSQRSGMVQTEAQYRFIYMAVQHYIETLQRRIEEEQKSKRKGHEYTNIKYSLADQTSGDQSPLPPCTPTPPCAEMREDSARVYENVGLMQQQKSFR
Nature of the experiment: PTPN11 enzyme inhibitors – biochemical, selectivity assay for STEP inhibitor project, dose response (AID 602367). Format: functional. Conditions: read-out: IC50_Mean.

The target of experiment [14] is T6, Sentrin-specific protease 1 (Homo sapiens, UniProt Q9P0U3).
T6 sequence (Q9P0U3 whole entry): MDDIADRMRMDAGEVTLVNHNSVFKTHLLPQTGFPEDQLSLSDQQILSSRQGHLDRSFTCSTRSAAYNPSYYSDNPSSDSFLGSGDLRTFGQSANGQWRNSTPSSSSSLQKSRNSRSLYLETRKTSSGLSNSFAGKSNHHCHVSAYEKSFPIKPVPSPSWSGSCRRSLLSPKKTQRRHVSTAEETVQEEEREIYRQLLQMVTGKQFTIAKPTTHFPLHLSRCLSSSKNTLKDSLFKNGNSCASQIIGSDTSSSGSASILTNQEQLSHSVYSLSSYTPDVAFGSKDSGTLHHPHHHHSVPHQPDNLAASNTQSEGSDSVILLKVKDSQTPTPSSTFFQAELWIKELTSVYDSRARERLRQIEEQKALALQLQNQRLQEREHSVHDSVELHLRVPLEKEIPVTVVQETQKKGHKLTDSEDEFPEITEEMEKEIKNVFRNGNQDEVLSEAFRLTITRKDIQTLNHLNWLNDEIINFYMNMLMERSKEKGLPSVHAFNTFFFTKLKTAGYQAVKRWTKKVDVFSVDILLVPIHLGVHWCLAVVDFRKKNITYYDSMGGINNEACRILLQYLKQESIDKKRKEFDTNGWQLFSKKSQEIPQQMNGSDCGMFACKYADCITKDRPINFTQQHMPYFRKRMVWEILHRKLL
Nature of the experiment: SENP1 catalytic domain blockers, concentration series – biochemical, kinetic FRET, dose response (AID 651697). The format is functional. Conditions: read-out: IC50_Mean.

In experiment [15] the target is T6, Sentrin-specific protease 1. Nature of the experiment: Dose response confirmation of small molecule inhibitors of the catalytic domain of the SUMO protease, SENP1 in a FRET assay. Format: functional. To be noted: read-out: IC50_Mean.
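Wherever EC50 is given: target is galanin receptor GalR3 read with a cAMP biosensor in HEK293 cells.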

On to `O=C(O)c1ccccc1Sc1ncnc2sc3c(c12)CCC3`, for which the IC50 on Beta-lactamase [1] was > 59.6 µM (inactive); at Major prion protein, 7.05 µM (active); on Beta-lactamase [2], > 59.6 µM (inactive); at Beta-lactamase [3], > 59.6 µM (inactive); in the experiment “cells [4]”, > 138 µM (inactive).

Consider `O=[N+]([O-])C(=C1SCCS1)C(=C(Cl)Cl)N1CCCCC1`, for which the AC50 in experiment [5] was > 100 µM (inactive).

As for `COc1ccc(/C=C2\SC(=O)N=C2N)cc1`, the IC50 in [6] was 83.4 µM (inactive); in experiment [7] it was 119 µM (inactive); in experiment [8] it was 7.57 µM (active).

Turning to `Oc1nc2cccnc2c2ccsc12`, the results for the IC50 on Galanin receptor type 3 and in the experiment with H9c2 were > 29.9 µM (inactive) and > 79 µM (inactive), respectively. Further, the EC50 in “cells [9]” is > 29.9 µM (inactive).

As for `COC(=O)[C@]12CCCCC=C1N(Cc1cccc3ccccc13)C(=O)[C@H](CC(=O)NCc1ccc(OC)c(OC)c1)C2`, the IC50 at Galanin receptor type 3 is > 29.9 µM (inactive). Further, the EC50 in “cells [9]” was > 29.9 µM (inactive).

`COc1ccc(NC(S)=NCCN2CCC(C)CC2)cc1Cl`: the IC50 was 0.72 µM (active) in [10], 11.2 µM (active) in experiment [11], 43.9 µM (inactive) in [12] and 0.999 µM (active) in [13].

Take `Cc1noc(NS(=O)(=O)c2ccc(NC(=O)/C=C/c3ccc(C(C)C)cc3)cc2)c1C`: the AC50 in experiment [5] is 30.2 µM (active).

Regarding `NC(=S)c1cc2cc(Br)ccc2oc1=O`, the IC50 in [14] is 5.2 µM (active); in [15] it was 3.31 µM (active).

`OC(c1ccc(Cl)c(Cl)c1)c1nc(-c2ccc(Cl)cc2)c[nH]1` (centres undefined): the IC50 was 51.5 µM (inactive) in experiment [6], 7.79 µM (active) in experiment [7] and 4.26 µM (active) in experiment [8].
